Assay results from ChEMBL document CHEMBL3108775, “Rescuing biological activity from synthetic phakellistatin 19” (J Med Chem, 2013).
Numbered stars: 1 amine (or outer) side, 2 acyl side, 3 side chain; on linkers, the order of the positions; unused ones are H or OH. Square brackets hold non-standard residues; d marks the D form. Peptide text beside a SMILES is read from it. X1 = CC1(C)SC[C@@H](C(=O)[*:2])N1[*:1]

Key:
MDA-MB-231 [1] = assay: Cytotoxicity against human MDA-MB-231 cells by MTT assay; assay type: functional
A549 [2] = assay: Cytotoxicity against human A549 cells by MTT assay; assay type: functional
HT-29 [3] = assay: Cytotoxicity against human HT-29 cells by MTT assay; assay type: functional
A549 [4] = assay: Antimitotic activity against human A549 cells; assay type: functional, cell-based
MDA-MB-231 [5] = assay: Antimitotic activity against human MDA-MB-231 cells; assay type: functional, cell-based
HT-29 [6] = assay: Antimitotic activity against human HT-29 cells; assay type: functional, cell-based

Row | SMILES | GI50 (MDA-MB-231 [1]) [µM] | LC50 (MDA-MB-231 [1]) [µM] | TGI (MDA-MB-231 [1]) [µM] | GI50 (A549 [2]) [µM] | LC50 (A549 [2]) [µM] | TGI (A549 [2]) [µM] | GI50 (HT-29 [3]) [µM] | LC50 (HT-29 [3]) [µM] | TGI (HT-29 [3]) [µM] | IC50 (A549 [4]) [µM] | IC50 (MDA-MB-231 [5]) [µM] | IC50 (HT-29 [6]) [µM]
1 | CC[C@H](C)[C@@H]1NC(=O)[C@@H]2CCCN2C(=O)[C@H]([C@@H](C)O)NC(=O)[C@H](CC(C)C)NC(=O)[C@@H]2CSC(C)(C)N2C(=O)[C@H](Cc2ccccc2)NC(=O)[C@H](Cc2c[nH]c3ccccc23)NC(=O)[C@@H]2CSC(C)(C)N2C1=O (cyclo(F[X1]LTPI[X1]W)) | 5.65 | > 9.58 | > 9.58 | > 9.58 | > 9.58 | > 9.58 | 3.16 | > 9.58 | 6.61 | – | – | –
2 | CC[C@H](C)[C@@H]1NC(=O)[C@@H]2CCCN2C(=O)[C@H]([C@@H](C)O)NC(=O)[C@H](CC(C)C)NC(=O)[C@@H]2CCCN2C(=O)[C@H](Cc2ccccc2)NC(=O)[C@H](Cc2c[nH]c3ccccc23)NC(=O)[C@@H]2CCCN2C1=O [STYLISSAMIDE X] (cyclo(FPLTPIPW)) | 0.515 | > 10.5 | 1.47 | 0.44 | > 10.5 | 1.16 | 0.462 | > 10.5 | 0.672 | 0.084 | 0.084 | 0.084
3 | CC[C@H](C)[C@@H]1NC(=O)[C@@H]2CCCN2C(=O)[C@H]([C@@H](C)O)NC(=O)[C@H](CC(C)C)NC(=O)[C@@H]2CCCN2C(=O)[C@H](Cc2ccccc2)NC(=O)[C@H](Cc2c[nH]c3ccccc23)NC(=O)[C@@H]2CSC(C)(C)N2C1=O (cyclo(FPLTPI[X1]W)) | > 10 | > 10 | > 10 | > 10 | > 10 | > 10 | > 10 | > 10 | > 10 | – | – | –
4 | CC[C@H](C)[C@@H]1NC(=O)[C@@H]2CSC(C)(C)N2C(=O)[C@H]([C@@H](C)O)NC(=O)[C@H](CC(C)C)NC(=O)[C@@H]2CSC(C)(C)N2C(=O)[C@H](Cc2ccccc2)NC(=O)[C@H](Cc2c[nH]c3ccccc23)NC(=O)[C@@H]2CSC(C)(C)N2C1=O (cyclo(F[X1]LT[X1]I[X1]W)) | 1.65 | 2.2 | 1.93 | 1.47 | 1.83 | 1.65 | 1.38 | 2.11 | 1.74 | – | – | –
5 | CC[C@H](C)[C@@H]1NC(=O)[C@@H]2CCCN2C(=O)[C@H]([C@@H](C)O)NC(=O)[C@H](CC(C)C)NC(=O)[C@@H]2CSC(C)(C)N2C(=O)[C@H](Cc2ccccc2)NC(=O)[C@H](Cc2c[nH]c3ccccc23)NC(=O)[C@@H]2CCCN2C1=O (cyclo(F[X1]LTPIPW)) | 6.11 | > 10 | > 10 | > 10 | > 10 | > 10 | 5.71 | > 10 | > 10 | – | – | –
6 | CC[C@H](C)[C@@H]1NC(=O)[C@@H]2CSC(C)(C)N2C(=O)[C@H]([C@@H](C)O)NC(=O)[C@H](CC(C)C)NC(=O)[C@@H]2CCCN2C(=O)[C@H](Cc2ccccc2)NC(=O)[C@H](Cc2c[nH]c3ccccc23)NC(=O)[C@@H]2CSC(C)(C)N2C1=O (cyclo(FPLT[X1]I[X1]W)) | 2.2 | 5.08 | 3.35 | 3.64 | > 9.58 | > 9.58 | 1.82 | 2.39 | 2.11 | – | – | –
7 | CC[C@H](C)[C@@H]1NC(=O)[C@@H]2CSC(C)(C)N2C(=O)[C@H]([C@@H](C)O)NC(=O)[C@H](CC(C)C)NC(=O)[C@@H]2CCCN2C(=O)[C@H](Cc2ccccc2)NC(=O)[C@H](Cc2c[nH]c3ccccc23)NC(=O)[C@@H]2CCCN2C1=O (cyclo(FPLT[X1]IPW)) | 2.7 | 6.01 | 4.11 | > 10 | > 10 | > 10 | 4.01 | 4.61 | 4.21 | – | – | –
8 | CC[C@H](C)[C@@H]1NC(=O)[C@@H]2CSC(C)(C)N2C(=O)[C@H]([C@@H](C)O)NC(=O)[C@H](CC(C)C)NC(=O)[C@@H]2CSC(C)(C)N2C(=O)[C@H](Cc2ccccc2)NC(=O)[C@H](Cc2c[nH]c3ccccc23)NC(=O)[C@@H]2CCCN2C1=O (cyclo(F[X1]LT[X1]IPW)) | 1.72 | 2.3 | 2.01 | 3.45 | > 9.58 | 7.85 | 1.82 | 2.68 | 2.2 | – | – | –
